# Data taken from patent US11053243B2 (Merck Sharp & Dohme Corp., priority 2009, dated 2021).
# Tested on: HCV genotype 1b replicon
# Experiment: HCV replicon assay, genotype 1b
# Assay type: cell-based, hepatitis C virus
# Conditions: Hepatitis C virus; genotype 1b replicon cells, 24 to 72 hours incubation, luciferase activity
# Method: The HCV replicons and NS5A inhibitory activity of the present compounds may be tested using assays known in the art. HCV inhibitors, such as those described in the Examples herein have activities in genotype 1b, 2a and 1a replicon assays of from about 1 pM to about 1 μM. The assay is performed by incubating a replicon harboring cell-line in the presence of inhibitor for a set period of time and measuring the effect of the inhibitor on HCV replicon replication either directly by quantifying replicon RNA level, or indirectly by measuring enzymatic activity of a co-encoded reporter enzyme such as luciferase or β-lactamase. By performing a series of such measurements at different inhibitor concentrations, the effective inhibitory concentration of the inhibitor (EC50 or EC90) is determined. See Jan M. Vrolijk et al., A replicons-based bioassay for the measurement of interferons in patients with chronic hepatitis C, 110 J. VIROLOGICAL METHODS 201 (2003). Such assays may also be run in an automated format for high through-put screening. See Paul Zuck et al., A cell-based β-lactamase reporter gene assay for the identification of inhibitors of hepatitis C virus replication, 334 ANALYTICAL BIOCHEMISTRY 344 (2004).
# Measurement of inhibition by compounds was performed using the HCV replicon system. Several different replicons encoding different HCV genotypes or mutations were used. In addition, potency measurements were made using different formats of the replicon assay, including different ways of measurements and different plating formats. See Jan M. Vrolijk et al., A replicons-based bioassay for the measurement of interferons in patients with chronic hepatitis C, 110 J. VIROLOGICAL METHODS 201 (2003); Steven S. Carroll et al., Inhibition of Hepatitis C Virus RNA Replication by 2′-Modified Nucleoside Analogs, 278(14) J. BIOLOGICAL CHEMISTRY 11979 (2003). However, the underlying principles are common to all of these determinations, and are outlined below.
# Stable neomycin phosphotransferase encoding replicon-harboring cell lines were used, so all cell lines were maintained under G418 selection prior to the assay. In some cases, the cell lines encoded a luciferase:Neor fusion and could be assayed either directly by determination of RNA copy number, or indirectly through measurement of the luciferase activity.
# To initiate an assay, replicon cells were plated in the presence of a dilution series of test compound in the absence of G418. Typically, the assays were performed in a 96-well plate format for manual operation, or a 384-well plate in an automated assay. Replicon cells and compound were incubated for 24 to 72 hours. At the end of the assay, cells are washed free of media and compound and then lysed. Luciferase activity was measured using a conventional luciferase assay. EC50 determinations were calculated as a percent of a DMSO control by fitting the data to a four parameter fit function.
# The activity table below provides representative data illustrating observed activity against genotype 1b.
row,SMILES,EC50 [pM]
1,"CC(C)(C)OC(=O)N[C@@H](C(=O)N1CCC[C@H]1C(=O)Nc1ccc(-c2[nH]c3ccc(NC(=O)[C@@H]4CCCN4C(=O)[C@H](NC(=O)OC(C)(C)C)c4ccccc4)cc3c2C(=O)NC2CC2)cc1)c1ccccc1 [Example 158, tert-butyl {(1R)-2-[(2S)-2-({4-[5-({[(2S)-1-{(2R)-2-[(tert-butoxycarbonyl)amino]-2-phenylacetyl}pyrrolidin-2-yl]carbonyl}amino)-3-(cyclopropylcarbamoyl)-1H-indol-2-yl]phenyl}carbamoyl)pyrrolidin-1-yl]-2-oxo-1-phenylethyl}carbamate]",500
2,"Cc1cccc(-c2c(-c3ccc(NC(=O)[C@@H]4CCCN4C(=O)[C@H](NC(=O)OC(C)(C)C)c4ccccc4)cc3)[nH]c3ccc(NC(=O)[C@@H]4CCCN4C(=O)[C@H](NC(=O)OC(C)(C)C)c4ccccc4)cc23)c1 [Example 169, tert-butyl {(1R)-2-[(2S)-2-({4-[5-({[(2S)-1-{(2R)-2-[(tert-butoxycarbonyl)amino]-2-phenylacetyl}pyrrolidin-2-yl]carbonyl}amino)-3-(3-methylphenyl)-1H-indol-2-yl]phenyl}carbamoyl)pyrrolidin-1-yl]-2-oxo-1-phenylethyl}carbamate]",4
3,"CC(=O)NCC#Cc1cc2cc(NC(=O)[C@@H]3CCCN3C(=O)[C@H](NC(=O)OC(C)(C)C)c3ccccc3)ccc2[nH]1 [Example 178, tert-butyl {(1R)-2-[(2S)-2-({2-[3-(acetylamino)prop-1-yn-1-yl]-1H-indol-5-yl}carbamoyl)pyrrolidin-1-yl]-2-oxo-1-phenylethyl}carbamate]",317000
4,"CC(C)(C)OC(=O)N[C@H](C(=O)N1CCC[C@H]1C(=O)Nc1ccc(-c2cc3cc(C#N)ccc3[nH]2)cc1)c1ccccc1 [Example 186, tert-butyl {(1S)-2-[(2S)-2-{[4-(5-cyano-1H-indol-2-yl)phenyl]carbamoyl}pyrrolidin-1-yl]-2-oxo-1-phenylethyl}carbamate]",15
5,"COC(=O)N[C@H](C(=O)N1CCC[C@H]1c1ncc(-c2ccc3c(c2)OCn2c-3cc3cc(-c4cnc([C@@H]5CCCN5C(=O)[C@@H](NC(=O)OC)C(C)C)[nH]4)ccc32)[nH]1)C(C)C [Example 189a, methyl [(2S)-1-{(2S)-2-[5-(10-{2-[(2S)-1-{(2S)-2-[(methoxycarbonyl)amino]-3-methylbutanoyl}pyrrolidin-2-yl]-1H-imidazol-5-yl}indolo[1,2-c] [1,3]benzoxazin-3-yl)-1H-imidazol-2-yl]pyrrolidin-1-yl}-3-methyl-1-oxobutan-2-yl]carbamate]",150
6,COC(=O)N[C@H](C(=O)N1CCC[C@H]1c1ncc(-c2ccc3c(c2)OCn2c-3c(F)c3cc(-c4cnc([C@@H]5CCCN5C(=O)[C@@H](NC(=O)OC)C(C)C)[nH]4)ccc32)[nH]1)C(C)C [Example 189b],1
7,"CCN(CC)[C@@H](C(=O)N1CCC[C@H]1C(=O)Nc1ccc2[nH]c(-c3ccc(-c4nnc([C@@H]5CCCN5C(=O)[C@@H](c5ccccc5)N(CC)CC)o4)cc3)cc2c1)c1ccccc1 [Example 191, 1-[(2R)-2-(diethylamino)-2-phenylacetyl]-N-{2-[4-(5-{(2S)-1-[(2R)-2-(diethylamino)-2-phenylacetyl]pyrrolidin-2-yl}-1,3,4-oxadiazol-2-yl)phenyl]-1H-indol-5-yl}-L-prolinamide]",20
8,"COC(=O)N[C@H](C(=O)N1CCC[C@H]1c1ncc(-c2ccc(-c3cc4cc(-c5cnc([C@@H]6CCCN6C(=O)[C@@H](NC(=O)OC)C(C)C)[nH]5)ccc4o3)cc2)[nH]1)C(C)C [Example 192, Methyl {(2S)-1-[(2S)-2-{5-[4-(5-{2-[(2S)-1-{(2S)-2-[(methoxy-carbonyl)amino]-3-methylbutanoyl}pyrrolidin-2-yl]-1H-imidazol-5-yl}-1-benzofuran-2-yl)phenyl]-1H-imidazol-2-yl}pyrrolidin-1-yl]-3-methyl-1-oxobutan-2-yl}carbamate]",2
9,"CCN(CC)[C@@H](C(=O)N1CCC[C@H]1c1ncc(-c2ccc(-c3cc4cc(-c5cnc([C@@H]6CCCN6C(=O)[C@@H](c6ccccc6)N(CC)CC)[nH]5)ccc4o3)cc2)[nH]1)c1ccccc1 [Example 193, (2R)-2-(diethylamino)-1-[(2S)-2-(5-{4-[5-(2-{(2S)-1-[(2R)-2-(diethylamino)-2-phenylacetyl]pyrrolidin-2-yl}-1H-imidazol-5-yl)-1-benzofuran-2-yl]phenyl}-1H-imidazol-2-yl)pyrrolidin-1-yl]-2-phenylethanone]",50
10,"COC(=O)N[C@@H](C(=O)N1CCC[C@H]1c1ncc(-c2ccc(-c3nc4cc(-c5cnc([C@@H]6CCCN6C(=O)[C@H](NC(=O)OC)c6ccccc6)[nH]5)ccc4o3)cc2)[nH]1)c1ccccc1 [Example 213, Methyl {(1R)-2-[(2S)-2-{5-[4-(5-{2-[(2S)-1-{(2R)-2-[(methoxycarbonyl)amino]-2-phenylacetyl}pyrrolidin-2-yl]-1H-imidazol-5-yl}-1,3-benzoxazol-2-yl)phenyl]-1H-imidazol-2-yl}pyrrolidin-1-yl]-2-oxo-1-phenylethyl}carbamate]",9

# Same assay, conditions: genotype 1b replicon cells, 24 to 72 hours incubation, luciferase activity
row,SMILES,EC50 [pM]
1,"CN(C)[C@@H](C(=O)N1CCC[C@H]1C(=O)Nc1ccc2[nH]c(-c3nc4cc(NC(=O)[C@@H]5CCCN5C(=O)[C@@H](c5ccccc5)N(C)C)ccc4o3)cc2c1)c1ccccc1 [Example 190, (2S)-1-[(2R)-2-(dimethylamino)-2-phenylacetyl]-N-(2-{5-[({(2S)-1-[(2R)-2-(dimethylamino)-2-phenylacetyl]pyrrolidin-2-yl}carbonyl)amino]-1,3-benzoxazol-2-yl}-1H-indol-5-yl)pyrrolidine-2-carboxamide]",67
